# Measurements published in ChEMBL document CHEMBL1126500, “Kinase bypass: A new strategy for anti-HIV drug design” (Bioorg Med Chem Lett, 1993).
# Key:
# C8166 = assay: Compound was tested for its ability to inhibit the replication of HIV-1 in C8166 T-cells; type: functional; settings: Homo sapiens, read-out: ED50 (the source's name)
# [1] = Toxic dose required to inhibit the replication of HIV-1 in C8166 T-cells; type: ADME, cell-based; settings: human, read-out: TD50 (the source's name)
SMILES,EC50 (C8166),CC50 [1]
CC(=O)O[C@H]1C[C@H](n2cc(C)c(=O)[nH]c2=O)O[C@@H]1CO,> 200 µM,> 200 µM
Cc1cn([C@H]2C[C@H](OC(=O)C(Cl)(Cl)Cl)[C@@H](COP(=O)(OCC(Cl)(Cl)Cl)OCC(Cl)(Cl)Cl)O2)c(=O)[nH]c1=O,50 µM,> 200 µM
Cc1cn([C@H]2C[C@H](OC(=O)C(C)C)[C@@H](COP(=O)(OCC(Cl)(Cl)Cl)OCC(Cl)(Cl)Cl)O2)c(=O)[nH]c1=O,40 µM,> 200 µM
Cc1cn([C@H]2C[C@H](OC=O)[C@@H](COP(=O)(OCC(Cl)(Cl)Cl)OCC(Cl)(Cl)Cl)O2)c(=O)[nH]c1=O,100 µM,> 200 µM
CC(=O)O[C@H]1C[C@H](n2cc(C)c(=O)[nH]c2=O)O[C@@H]1COP(=O)(OCC(Cl)(Cl)Cl)OCC(Cl)(Cl)Cl,30 µM,> 200 µM
CCC(=O)O[C@H]1C[C@H](n2cc(C)c(=O)[nH]c2=O)O[C@@H]1COP(=O)(OCC(Cl)(Cl)Cl)OCC(Cl)(Cl)Cl,35 µM,80 µM
Cc1cn([C@H]2C[C@H](OC(=O)CCl)[C@@H](COP(=O)(OCC(Cl)(Cl)Cl)OCC(Cl)(Cl)Cl)O2)c(=O)[nH]c1=O,50 µM,50 µM
CCCC(=O)O[C@H]1C[C@H](n2cc(C)c(=O)[nH]c2=O)O[C@@H]1COP(=O)(OCC(Cl)(Cl)Cl)OCC(Cl)(Cl)Cl,75 µM,80 µM
Cc1cn([C@H]2C[C@H](N=[N+]=[N-])[C@@H](CO)O2)c(=O)[nH]c1=O [ZIDOVUDINE],0.01 µM,> 200 µM
